# Laboratory results: patent publication EP3789378A1, “PIPERIDINES OR PIPERIDONES SUBSTITUTED WITH UREA AND HETEROARYL” (Grünenthal GmbH, priority 2019, dated 2021)
# Target: T1, h FPR2 (Homo sapiens, UniProt P25090)
# T1 construct: expressed in transfected cells
# T1 sequence (P25090 1-351): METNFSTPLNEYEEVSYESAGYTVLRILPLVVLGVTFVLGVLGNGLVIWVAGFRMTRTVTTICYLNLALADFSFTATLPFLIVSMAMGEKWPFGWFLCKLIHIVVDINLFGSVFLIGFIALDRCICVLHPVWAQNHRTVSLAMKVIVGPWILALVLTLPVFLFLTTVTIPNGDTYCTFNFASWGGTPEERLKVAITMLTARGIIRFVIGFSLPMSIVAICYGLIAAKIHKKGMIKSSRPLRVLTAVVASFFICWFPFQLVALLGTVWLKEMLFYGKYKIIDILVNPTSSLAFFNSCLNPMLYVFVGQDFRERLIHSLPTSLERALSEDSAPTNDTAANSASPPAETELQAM
# Experiment: Agonistic activity in hFPR2-Aq-CHO cells (FLIPR Calcium 5 fluorescence assay)
# Assay type: cell-based
# Conditions: 11 point half log dilution, final assay concentration from 10µM
# Method in brief: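 hFPR2-Aq-CHO cells were loaded with Calcium 5 dye for 30 min at 37 °C and equilibrated 10 min at room temperature. Compound (11 points, 10 µM to 100 pM final) was added in HBSS/HEPES/probenecid buffer pH 7.4. Fluorescence rise over basal across 5 min, relative to no-compound wells, gave EC50.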
row,Structure (SMILES),EC50
1,"COc1ccc([C@@H]2CN(CCS(C)(=O)=O)CC[C@H]2NC(=O)Nc2ccc(Cl)cc2)nc1 (relative stereo) [Ex-93, trans-1-(4-chloro-phenyl)-3-[1'-(2-methanesulfonyl-ethyl)-5-methoxy-1',2',3',4',5',6'-hexahydro-[2,3']bipyridinyl-4'-yl]-urea]",3 nM
2,"COc1ccc([C@@H]2CN(C(=O)CCN(C)C)CC[C@H]2NC(=O)Nc2ccc(Cl)cc2)nc1 (relative stereo) [Ex-95, trans-1-(4-chloro-phenyl)-3-[1'-(3-dimethylamino-propionyl)-5-methoxy-1',2',3',4',5',6'-hexahydro-[2,3']bipyridinyl-4'-yl]-urea]",12 nM
3,"CNCC(=O)N1CC[C@@H](NC(=O)Nc2ccc(Cl)cc2)[C@H](c2ccc(OC)cn2)C1 (relative stereo) [Ex-96, trans-1-(4-chloro-phenyl)-3-[5-methoxy-1'-(2-methylamino-acetyl)-1',2',3',4',5',6'-hexahydro-[2,3']bipyridinyl-4'-yl]-urea]",4 nM
4,"CNCCC(=O)N1CC[C@@H](NC(=O)Nc2ccc(Cl)cc2)[C@H](c2ccc(OC)cn2)C1 (relative stereo) [Ex-97, trans-1-(4-chloro-phenyl)-3-[5-methoxy-1'-(3-methylamino-propionyl)-1',2',3',4',5',6'-hexahydro-[2,3']bipyridinyl-4'-yl]-urea]",4 nM
5,"COc1ccc([C@@H]2CN(C(=O)CCO)CC[C@H]2NC(=O)Nc2ccc(Cl)cc2)nc1 (relative stereo) [Ex-102, trans-1-(4-chloro-phenyl)-3-[1'-(3-hydroxy-propionyl)-5-methoxy-1',2',3',4',5',6'-hexahydro-[2,3']bipyridinyl-4'-yl]-urea]",27 nM
6,"COc1ccc([C@@H]2CN(CCCO)CC[C@H]2NC(=O)Nc2ccc(Cl)cc2)nc1 (relative stereo) [Ex-103, trans-1-(4-chloro-phenyl)-3-[1'-(3-hydroxy-propyl)-5-methoxy-1',2',3',4',5',6'-hexahydro-[2,3']bipyridinyl-4'-yl]-urea]",2 nM
7,"CN1CCC(C(=O)N2CC[C@@H](NC(=O)Nc3ccc(Cl)cc3)[C@H](c3ccc(Cl)s3)C2)CC1 (relative stereo) [Ex-104, trans-1-(4-chloro-phenyl)-3-[3-(5-chloro-thiophen-2-yl)-1-(1-methyl-piperidine-4-carbonyl)-piperidin-4-yl]-urea]",6 nM
8,"O=C(Nc1ccc(Cl)cc1)N[C@@H]1CCN(CCCO)C[C@H]1c1ccc(Cl)s1 (relative stereo) [Ex-105, trans-1-(4-chloro-phenyl)-3-[3-(5-chloro-thiophen-2-yl)-1-(3-hydroxy-propyl)-piperidin-4-yl]-urea]",11 nM
9,"COC1CCC(C(=O)N2CC[C@@H](NC(=O)Nc3ccc(Cl)cc3)[C@H](c3ccc(Cl)s3)C2)CC1 (relative stereo) [Ex-107, trans-1-(4-chloro-phenyl)-3-[3-(5-chloro-thiophen-2-yl)-1-(4-methoxy-cyclohexanecarbonyl)-piperidin-4-yl]-urea]",46 nM
10,"COc1ccc([C@@H]2CN(C3COC3)CC[C@H]2NC(=O)Nc2ccc(Cl)cc2)nc1 (relative stereo) [Ex-108, trans-1-(4-chloro-phenyl)-3-(5-methoxy-1'-oxetan-3-yl-1',2',3',4',5',6'-hexahydro-[2,3']bipyridinyl-4'-yl)-urea]",7 nM
11,"COc1ccc([C@@H]2CN(CC3COC3)CC[C@H]2NC(=O)Nc2ccc(Cl)cc2)nc1 (relative stereo) [Ex-109, trans-1-(4-chloro-phenyl)-3-(5-methoxy-1'-oxetan-3-ylmethyl-1',2',3',4',5',6'-hexahydro-[2,3']bipyridinyl-4'-yl)-urea]",1.2 nM
12,"COc1ccc([C@@H]2CN(C3CCS(=O)(=O)CC3)CC[C@H]2NC(=O)Nc2ccc(Cl)cc2)nc1 (relative stereo) [Ex-110, trans-1-(4-chlorophenyl)-3-(1-(1,1-dioxidotetrahydro-2H-thiopyran-4-yl)-3-(5-methoxypyridin-2-yl)piperidin-4-yl)urea]",49 nM
13,"COc1ccc([C@@H]2CN(CCCN(C)C)CC[C@H]2NC(=O)Nc2ccc(Cl)cc2)nc1 (relative stereo) [Ex-111, trans-1-(4-chloro-phenyl)-3-[1'-(3-dimethylaminopropyl)-5-methoxy-1',2',3',4',5',6'-hexahydro-[2,3']bipyridinyl-4'-yl]-urea]",0.2 nM
14,"COc1ccc([C@@H]2CNCC[C@H]2NC(=O)Nc2ccc(Cl)cc2)nc1 (relative stereo) [Ex-112, trans-1-(4-chlorophenyl)-3-[3-(5-methoxypyridin-2-yl)piperidin-4-yl]urea]",1.2 nM
15,"COc1ccc([C@@H]2CN(CC3CCC(O)CC3)CC[C@H]2NC(=O)Nc2ccc(Cl)cc2)nc1 (relative stereo) [Ex-114, trans-1-(4-chloro-phenyl)-3-[1'-(4-hydroxy-cyclohexylmethyl)-5-methoxy-1',2',3',4',5',6'-hexahydro-[2,3']bipyridinyl-4'-yl]-urea]",0.6 nM
16,"COc1ccc([C@@H]2CN(CC3CCC(OC)CC3)CC[C@H]2NC(=O)Nc2ccc(Cl)cc2)nc1 (relative stereo) [Ex-115, trans-1-(4-chloro-phenyl)-3-[5-methoxy-1'-(4-methoxy-cyclohexylmethyl)-1',2',3',4',5',6'-hexahydro-[2,3']bipyridinyl-4'-yl]-urea]",0.5 nM
17,"COC1CCC(CN2CC[C@@H](NC(=O)Nc3ccc(Cl)cc3)[C@H](c3ccc(Cl)s3)C2)CC1 (relative stereo) [Ex-116, trans-1-(4-chloro-phenyl)-3-[3-(5-chloro-thiophen-2-yl)-1-(4-methoxy-cyclohexylmethyl)-piperidin-4-yl]-urea]",9 nM
18,"CNCCN1CC[C@@H](NC(=O)Nc2ccc(Cl)cc2)[C@H](c2ccc(OC)cn2)C1 (relative stereo) [Ex-117, trans-1-(4-Chlorophenyl)-3-[3-(5-methoxy-pyridin-2-yl)-1-(2-methylamino-ethyl)-piperidin-4-yl]-urea]",3 nM
19,"COc1ccc([C@@H]2CN(C(=O)CN(C)C)CC[C@H]2NC(=O)Nc2cc(C)ns2)nc1 (relative stereo) [Ex-118, trans-1-[1-(2-Dimethylamino-acetyl)-3-(5-methoxy-pyridin-2-yl)-piperidin-4-yl]-3-(3-methyl-isothiazol-5-yl)-urea]",5 nM
20,"COc1ccc([C@@H]2CN(C(=O)C3COC3)CC[C@H]2NC(=O)Nc2cc(C)ns2)nc1 (relative stereo) [Ex-119, trans-1-[3-(5-Methoxy-pyridin-2-yl)-1-(oxetane-3-carbonyl)-piperidin-4-yl]-3-(3-methyl-isothiazol-5-yl)-urea]",9 nM

# Same assay, conditions: agonistic response at 0.1µM
row,Structure (SMILES),activation at 0.1 µM
1,"COc1ccc([C@@H]2CN(C(=O)c3cnccc3C(F)(F)F)CC[C@H]2NC(=O)Nc2ccc(Cl)cc2)nc1 (relative stereo) [Ex-98, trans-1-(4-chlorophenyl)-3-[3-(5-methoxypyridin-2-yl)-1-{[4-(trifluoromethyl)pyridin-3-yl]carbonyl}piperidin-4-yl]urea]",26%
2,"COCCC(=O)N1CC[C@@H](NC(=O)Nc2ccc(Cl)cc2)[C@H](c2ccc(Cl)s2)C1 (relative stereo) [Ex-106, trans-1-(4-chloro-phenyl)-3-[3-(5-chloro-thiophen-2-yl)-1-(3-methoxy-propionyl)-piperidin-4-yl]-urea]",41%
